# According to patent US10030064B2, “Mammalian cell culture processes for protein production” (priority 2009, dated 2018):
# What was measured:
# [1] = test system: CHO DG44 cell line expressing the fusion glycoprotein; test: Shake flask CHO culture: total sialic acid content, N-linked and O-linked oligosaccharide profile of the secreted fusion glycoprotein; assay type: cell-based, Chinese hamster
# Procedure: The CHO cell line used in this study was originally subcloned from DG44 parental cells and cultured in a proprietary protein-free growth medium.
# (§1) The experiments were carried out in 250-mL shake flasks (VWR international) with starting volumes of 100 mL and initial cell densities of 6×10^5 cells/mL. The cultures were placed on a shaker platform (VWR international) at 150 rpm and maintained at 37° C. and 6% CO2 for ten days. The cultures were sampled daily and the pH was adjusted as needed using 1M sodium carbonate and fed with glucose and glutamine every two days in order to maintain them at adequate levels. Cell density and viability were measured offline using a Cedex automated cell counter (Innovatis AG, Bielefeld, Germany). Culture pH and concentrations for glucose and glutamine were measured off-line using a Bioprofile Analyzer 400 (Nova Biomedical Corporation, Waltham, Mass.).
# The sialic acid to recombinant protein molar ratio was calculated by determining the sialic acid and recombinant protein concentrations. Sialic acid (SA), including N-Acetylneuraminic (Neu5Ac) and N-glycolylneuraminic acid (Neu5Gc), was released by partial acid hydrolysis. The derivatives were then separated by reversed-phase HPLC to determine sialic acid content. The protein concentrations were determined by UV absorbance at 280 nm. Sialic acid content is reported as molar ratios, which is the total moles of Neu5Ac and Neu5Gc per mole of recombinant glycoprotein. Sialic acid contents are reported as normalized values, which are the actual values divided by an arbitrary value. The same divisor was used to normalize all sialic acid content data in the studies reported here.
# High-pH anion-exchange chromatography with pulsed amperometric detection (HPAEC-PAD) was used for the profiling of N-linked oligosaccharides (Base and Spellman 1990; Townsend and Hardy 1991) to provide information on site-specific N-linked glycosylation. N-linked oligosaccharides were cleaved from protein and separated on HPAEC-PAD into four domains based on the amount of sialic acid present. Domain I represents the asialo species. Domains II, III, and IV are sialylated species and represent monosialylated, disialylated, and tri- and tetrasialylated species, respectively. N-linked sialylated species fraction is reported as the percentage of N-linked sialylated species within the total N-linked oligosaccharides species, which includes both asialo and sialylated species. N-linked sialylated species fractions are reported as normalized values, which are the actual values divided by an arbitrary value. The same divisor was used to normalize all N-linked sialylated species fraction data in the studies reported here.
# O-linked glycosylation was characterized by intact mass analysis of a reference standard and Protein-A purified samples of the fusion protein (Reference). Samples were diluted in 100 mM Tris, 25 mM NaCl, pH 7.6 and incubated with PNGase F overnight to enzymatically remove all N-linked oligosaccharides. Samples were then injected for intact mass analysis after mixing with an internal standard of insulin. O-linked sialic acid content is reported as molar ratios, which is the moles of O-linked sialic acid per mole of recombinant glycoprotein.
# This study was performed in duplicate 250-mL shake flasks using the culture conditions as described above. […] Cultures were harvested on day 10, and the fusion protein was purified using a protein A column and analyzed for total sialic acid content, O-linked sialic acid content and the N-linked profile.
# CHO cells = test: Shake flask CHO culture: cell viability profile (Example 1); assay type: cell-based, Chinese hamster; details: 1 μM DEX from day 2
# Procedure: as §1
# [2] = 0.1 μM DEX, with 1 μM RU-486 added 24 hours before DEX
# [3] = DEX 0.01 μM added day 2, harvest day 10
# [4] = DEX 0.1 μM added day 2, harvest day 10
# [5] = DEX 1.0 μM added day 2, harvest day 10
# [6] = DEX 10 μM added day 2, harvest day 10
structure (smiles),measurement,setting,value
"C[C@@H]1C[C@H]2[C@@H]3CCC4=CC(=O)C=C[C@]4(C)[C@@]3(F)[C@@H](O)C[C@]2(C)[C@@]1(O)C(=O)CO [DEX, dexamethasone]",normalized N-linked sialylated species fraction,[1]; [2],81.5±0.8
same,normalized total sialic acid content,[1]; [2],12.7±0.1
same,normalized N-linked sialylated species fraction,"[1]; 0.1 μM DEX, without RU-486",92.2±2.0
same,Percent increase of N-link asialo-,[1]; [3],−8.6%
same,Percent increase of N-link-Di-,[1]; [3],13.9%
same,Percent increase of N-link-Mono-,[1]; [3],6.6%
same,Percent increase of N-link-Tri and tetra-,[1]; [3],4.5%
same,Percent increase of O-link SA,[1]; [3],0.0%
same,Percent increase of SA,"[1]; DEX 0.01 μM added day 2, harvest day 10, vs control",9.3%
same,Percent increase of N-link asialo-,[1]; [4],−9.6%
same,Percent increase of N-link-Di-,[1]; [4],13.9%
same,Percent increase of N-link-Mono-,[1]; [4],7.3%
same,Percent increase of N-link-Tri and tetra-,[1]; [4],13.6%
same,Percent increase of O-link SA,[1]; [4],0.5%
same,Percent increase of SA,"[1]; DEX 0.1 μM added day 2, harvest day 10, vs control",13.0%
same,Percent increase of N-link asialo-,[1]; [5],−10.0%
same,Percent increase of N-link-Di-,[1]; [5],19.4%
same,Percent increase of N-link-Mono-,[1]; [5],4.3%
same,Percent increase of O-link SA,[1]; [5],0.9%
same,Percent increase of SA,"[1]; DEX 1.0 μM added day 2, harvest day 10, vs control",13.0%
same,Percent increase of N-link asialo-,[1]; [6],−15.6%
same,Percent increase of N-link-Di-,[1]; [6],24.3%
same,Percent increase of N-link-Mono-,[1]; [6],7.3%
same,Percent increase of N-link-Tri and tetra-,[1]; [6],20.5%
same,Percent increase of O-link SA,[1]; [6],0.0%
same,Percent increase of SA,"[1]; DEX 10 μM added day 2, harvest day 10, vs control",20.4%
same,Cell viability,CHO cells; day 4,98.0±0.1%
same,Cell viability,CHO cells; day 10,85.0±2.7%
